Test results published in patent US10961278B2, “Vancomycin derivative, preparation method, pharmaceutical composition and use thereof” (SHANGHAI INSTITUTE OF MATERIA MEDICA, CHINESE ACADEMY OF …, priority 2016, dated 2021).
Converted amounts (≈) assume the structure as drawn. “Also recorded” adds a separate entry of the source. Where two headings read alike, the source gives them in different places.

Experiments:
[1] = system: Staphylococcus aureus USA300 LAC strain (CA-MRSA); type: in vivo; conditions: for in vivo antibacterial activity against methicillin-resistant Staphylococcus aureus, comparison with positive controls: BALB/c mice, 7 mg/kg i.p., 10 days
[2] = system: vancomycin-sensitive Staphylococcus aureus Newman strain; assay: In vitro antibacterial activity assay (MIC, CLSI dilution method); type: cell-based; conditions: Staphylococcus aureus, S. aureus Newman, 37° C., 16 h
[3] = In vivo pharmacokinetic assay in mice; conditions: for AUCINF_obs / AUClast / CL_obs / MRTINF_obs / T1/2 / VSS_obs: male CD-1 mice, intravenous single dose 5 mg/kg; for AUC(0-inf) / AUC(0-t) / MRT inf / half-life: male, CD-1, mouse, in vivo, iv, 5 mg/kg
[4] = system: vancomycin-middle resistant Staphylococcus aureus Mu50 strain; assay: In vitro antibacterial activity assay (MIC, CLSI dilution method); type: cell-based
[5] = male, CD-1, mouse, in vivo, iv, 5 mg/kg
in vivo = conditions: male, CD-1, mouse, iv, 5 mg/kg
[6] = system: HL-7702 cells (human liver cells); assay: Liver cytotoxicity assay (CCK8 cell viability); type: cell-based; conditions: HL-7702 cells, 10, 50, 100 μM, 72 h
Procedure: (§1) Liver and kidney cell viability assays were performed using the Cell Activity Assay Kit CCK8 (Cell Counting Kit-8) method. HK-2 cells (human renal proximal tubular epithelial cells) and HL-7702 cells (human liver cells) in logarithmic growth phase were inoculated to a 96-well culture plate at a suitable density (about 5000 cells), at 100 μL per well. […] Three replicate wells were set for each concentration, and the physiological saline vehicle control well corresponding to each concentration and a well for cell-free zero-adjustment were set. After the treatment, 10 μL of CCK8 detection solution was added into each well, the incubation was performed at 37° C. for about 1.5 h. The optical density (OD value) at 450 nm was measured on a […] microplate reader. The OD value was converted to cell viability value according to the following equation: […] wherein, ODC represents the optical density obtained by different concentrations of the compounds to be tested, C represents the concentration of the compound, and ODC=0 represents the optical density obtained without addition of the compound to be tested.

[7] = system: HK-2 cells (human renal proximal tubular epithelial cells); assay: Kidney cytotoxicity assay (CCK8 cell viability); type: cell-based; conditions: HK-2 cells, 10, 50, 100 μM, 72 h
Procedure: as §1

[8] = Staphylococcus aureus; S. aureus Mu50, 37° C., 16 h; read-out: MIC Mu50
[9] = female BALB/c mice, USA300 LAC retro-orbital, single dose 7 mg/kg intraperitoneally 1 h after infection, after 10 days
[10] = Staphylococcus aureus, 16 h, read-out: MIC Mu50

| SMILES | survival rate ([1]; in vivo, ip, 7 mg/kg) [%] | MIC [2] [µg/mL] | AUCINF_obs [3] [ng·h/mL] | AUClast [3] [ng·h/mL] | CL_obs [3] [mL/min/kg] | MRTINF_obs [3] [h] | T1/2 [3] [h] | MIC [4, 8] [µg/mL] | in vivo antibacterial activity against methicillin-resistant Staphylococcus aureus, comparison with positive controls [1] | survival rate [1, 9] [%] | VSS_obs [5] [L/kg] | VSS_obs [3] [L/kg] | AUC(0-inf) [3] [ng·h/mL] | AUC(0-t) [3] [ng·h/mL] | MRT inf [3] [h] | half-life [3] [h] | MIC [4, 10] [µg/mL] | in vivo antibacterial activity against methicillin-resistant Staphylococcus aureus, comparison with positive controls ([1]; 7 mg/kg) | further results |
| --- | --- | --- | --- | --- | --- | --- | --- | --- | --- | --- | --- | --- | --- | --- | --- | --- | --- | --- | --- |
| CCCCCCCCCCNCCN[C@@]1(C)C[C@H](O[C@H]2[C@H](Oc3c4cc5cc3Oc3ccc(cc3Cl)[C@@H](O)[C@@H](NC(=O)[C@@H](CC(C)C)NC)C(=O)N[C@@H](CC(N)=O)C(=O)N[C@H]5C(=O)N[C@H]3C(=O)N[C@H](C(=O)N[C@H](C(=O)O)c5cc(O)c(CNCP(=O)(O)O)c(O)c5-c5cc3ccc5O)[C@H](O)c3ccc(c(Cl)c3)O4)O[C@H](CO)[C@@H](O)[C@@H]2O)O[C@@H](C)[C@H]1O [Tela., telavancin, reference compound] | 93.3 | < 0.0625 | 17304 ± 5745 | 17143 ± 5611 | 5.1 ± 1.5 | 1.71 ± 0.13 | 1.13 ± 0.13 | 1 (≈ 0.57 µM) | – | – | – | – | – | – | – | – | – | – | – |
| CN[C@H](CC(C)C)C(=O)N[C@H]1C(=O)N[C@@H](CC(N)=O)C(=O)N[C@H]2C(=O)N[C@H]3C(=O)N[C@H](C(=O)N[C@H](C(=O)O)c4cc(O)c(CNCCCNC(=O)[C@H](O)[C@@H](O)[C@H](O)[C@H](O)CO)c(O)c4-c4cc3ccc4O)[C@H](O)c3ccc(c(Cl)c3)Oc3cc2cc(c3OC2O[C@H](CO)C(O)C(O)[C@H]2O[C@@H]2CC(C)[C@@H](O)C(C)(NCc3ccc(-c4ccc(C(F)(F)F)cc4)cc3)C2)Oc2ccc(cc2Cl)[C@H]1O (some centres unmarked) [Van016] | – | – | – | – | – | – | – | – | better activity than vancomycin | 60.0 | 1.826 ± 0.334 | – | – | – | – | – | – | – | CL_obs [5]: 6.4 ± 1.39 mL/min/kg; MIC ([2]; NEWMAN): ≤ 0.0625 µg/mL; AUC(0-inf) (in vivo): 13400 ± 12700 ng·h/mL; AUC(0-t) (in vivo): 10700 ± 2060 ng·h/mL; MRT inf (in vivo): 4.79 ± 0.24 h; half-life (in vivo): 3.72 ± 0.7 h; MIC ([4]; Staphylococcus aureus, 16 h, S. aureus Mu50, 37° C., read-out: MIC Mu50): 0.25 µg/mL (≈ 0.128 µM) |
| CN[C@H](CC(C)C)C(=O)N[C@H]1C(=O)N[C@@H](CC(N)=O)C(=O)N[C@H]2C(=O)N[C@@H]3C(=O)N[C@H](C(=O)N[C@H](C(=O)O)c4cc(O)c(CNC5C(O)OC(CO)[C@H](O)[C@@H]5O)c(O)c4-c4cc3ccc4O)[C@H](O)c3ccc(c(Cl)c3)Oc3cc2cc(c3O[C@@H]2O[C@H](CO)C(O)C(O)[C@H]2O[C@H]2CC(C)(NCc3ccc(-c4ccc(C(F)(F)F)cc4)cc3)[C@H](O)[C@H](C)O2)Oc2ccc(cc2Cl)[C@H]1O (some centres unmarked) [Van032] | – | ≤ 0.0625 | – | – | 3.45 ± 0.40 | – | – | – | better activity than vancomycin | 73.3 | – | 0.9 ± 0.18 | 24300 ± 2800 | 20100 ± 1710 | 4.41 ± 1.23 | 3.45 ± 1.26 | ≤ 0.0625 | – | – |
| CN[C@H](CC(C)C)C(=O)N[C@H]1C(=O)N[C@@H](CC(N)=O)C(=O)N[C@H]2C(=O)N[C@H]3C(=O)N[C@H](C(=O)N[C@H](C(=O)O)c4cc(O)c(CNCCO[C@@H]5OC(CO)[C@H](O)C(O)C5O)c(O)c4-c4cc3ccc4O)[C@H](O)c3ccc(c(Cl)c3)Oc3cc2cc(c3OC2O[C@H](CO)C(O)C(O)[C@H]2O[C@@H]2CC(C)[C@@H](O)C(C)(NCc3ccc(-c4ccc(C(F)(F)F)cc4)cc3)C2)Oc2ccc(cc2Cl)[C@H]1O (some centres unmarked) [Van037] | – | ≤ 0.0625 | – | – | 4.42 ± 1.42 | – | – | – | – | 86.6 | – | 1.077 ± 0.449 | 20000 ± 5490 | 16600 ± 4960 | 4.21 ± 2.08 | 2.94 ± 1.39 | 0.25 (≈ 0.13 µM) | better activity than vancomycin; also recorded: comparable activities with telavancin | toxicity in liver cells [6]: less toxicity in liver cells than vancomycin and telavancin; toxicity in kidney cells [7]: toxicity less than vancomycin and comparable to telavancin |
| CN[C@H](CC(C)C)C(=O)N[C@H]1C(=O)N[C@@H](CC(N)=O)C(=O)N[C@H]2C(=O)N[C@@H]3C(=O)N[C@H](C(=O)N[C@H](C(=O)O)c4cc(O)c(CNC5C(O)OC(CO)[C@H](O)[C@@H]5O)c(O)c4-c4cc3ccc4O)[C@H](O)c3ccc(c(Cl)c3)Oc3cc2cc(c3O[C@@H]2O[C@H](CO)C(O)C(O)[C@H]2O[C@H]2CC(C)(NCc3ccc(-c4ccc(Cl)cc4)cc3)[C@H](O)[C@H](C)O2)Oc2ccc(cc2Cl)[C@H]1O (some centres unmarked) [Van038] | – | ≤ 0.0625 | – | – | 7.0 ± 1.38 | – | – | – | – | 93.3 | – | 1.754 ± 0.38 | 12200 ± 2490 | 12100 ± 2480 | 4.18 ± 0.34 | 3.81 ± 0.31 | 0.125 (≈ 0.0679 µM) | better activity than vancomycin; also recorded: comparable activities with telavancin | – |
| CN[C@H](CC(C)C)C(=O)N[C@H]1C(=O)N[C@@H](CC(N)=O)C(=O)N[C@H]2C(=O)N[C@H]3C(=O)N[C@H](C(=O)N[C@H](C(=O)O)c4cc(O)cc(O)c4-c4cc3ccc4O)[C@H](O)c3ccc(c(Cl)c3)Oc3cc2cc(c3O[C@@H]2O[C@H](CO)[C@@H](O)[C@H](O)[C@H]2O[C@H]2C[C@](C)(N)[C@H](O)[C@H](C)O2)Oc2ccc(cc2Cl)[C@H]1O [Vanco., vancomycin] | 6.6 | 2 (≈ 1.38 µM) | 1271 ± 347 | 1242 ± 335 | 68.7 ± 18 | 0.790 ± 0.26 | 0.597 ± 0.208 | 8 (≈ 5.52 µM) | – | – | 3.076 ± 0.175 | – | – | – | – | – | – | – | – |
